Laboratory results reported in patent publication US5409898A, “Compositions and methods for treating infections caused by organisms sensitive to β-lactam antibiotics” (priority 1994, dated 1995).
In brackets after ≈: the same amount, converted by molar mass.

What was measured:
E. coli ATCC 25922 [1] = assay: Serum bactericidal assay in 40% pooled normal human serum (magainin 2 with antibiotics); type: cell-based, Escherichia coli; details: 1/32, 1/16, 1/8 MIC antibiotic; 200 μg/ml magainin 2; 40% pooled normal human serum
E. coli H16 [2] = assay: In vivo protection of neutropenic mice from lethal E. coli H16 infection (magainin 2, C-13 peptide, cefepime, amikacin); details: neutropenic mice, 2×10^4 E. coli H16 i.p.; two i.m. injections at 1 and 3.5 hr: 1 mg/mouse magainin 2, 0.1 mg/kg cefepime; at least 10 days
Procedure: The ability of magainin and cefepime combinations to protect mice from a lethal infection of E. coli was examined. Mice were made neutropenic by injection of Cytoxan and then challenged with E. coli. Mice were then divided into four different groups: (1) mice that were given no further treatment; (2) were given magainin 2 or C-13 peptide only; (3) were given cefepime only and (4) were given a combination of magainin 2 or C-13 peptide and cefepime. […] When amikacin, an aminoglycoside, was tested in similar experiments, no in vitro bactericidal activity or in vivo protection was found.
Mice were made neutropenic five days prior to bacterial challenge. Neutropenia was induced by subcutaneous injection of 250 mg/kg Cytoxan (cyclophosphamide). The mice were challenged with 2×10^4 E. coli H16. Challenge was by intraperitoneal injection. […] The survival of the mice was monitored for a period of at least 10 days

M009 = assay: Determination of the minimum inhibitory concentration (MIC), M009; type: cell-based, Pseudomonas aeruginosa; details: antibiotic resistant strain M009
Procedure: (§1) The MIC represents the lowest concentration of antimicrobial agent at which complete inhibition occurs. MIC's were determined by the microdilution plate dilution method using AMH (Manual of Clinical Microbiology, Fourth Edition, Lennette, E. H. Ed. in Chief, ASM. 1985. pps 972-977). At least three different determinations were performed with each antibiotic for each strain.
(§2) MIC's were determined by the microdilution plate dilution method using AMH (Manual of Clinical Microbiology, Fourth Edition, Lennette, E. H. Ed. in Chief, ASM. 1985. pps 972-977). At least three different determinations were performed with each antibiotic for each strain.

E. coli H16 [3] = assay: In vivo protection of neutropenic mice from systemic E. coli H16 infection (C-13 peptide analogs)
From the text: The ability of C-13 peptide analogs and cefepime combinations to protect mice from a lethal infection of E. coil was examined. Mice were made neutropenic by an injection of cyclophosphamide and then challenged with E. coli. Mice were then divided into four groups: (1) mice that were given PBS; (2) were given C-13 peptide analogs only; (3) were given cefepime only; and (4) were given a combination of C-13 peptide analogs and cefepime.
(§3) Male CrL:CF1 mice were made neutropenic five days prior to bacterial challenge. Neutropenia was induced by subcutaneous injection of 250 mg/kg Cytoxan (cyclophosphamide). The mice were challenged with either 2×10^4 E. coli H16 (Table 4) or 5×10^4 A645AP by intraperitoneal injection. Mice were divided into four treatment groups: (1) PBS; (2) C-13 peptide analog (15 mg/kg); (3) cefepime (0.1 mg/kg); (4) a combination treatment of cefepime and C-13 peptide analog (0.1 mg/kg cefepime and 15 mg/kg C-13 peptide analog) that were combined prior to injection. All injections were made in PBS (0.2 ml) and were administered intramuscularly with each injection in separate legs, one and 3.5 hours after bacterial challenge. The survival of the mice was monitored for ten days and the results analyzed by the Fisher Exact test.

E. coli ATCC 25922 [4] = assay: Bactericidal assay in GVB++ buffer (magainin 2 / cefepime); type: cell-based, Escherichia coli; details: cefepime alone (1/4 MIC)
Procedure: FIG. 1 illustrates magainin 2 killing of untreated and cefepime altered E. coli in buffer. […] Cells were diluted as described in Section 6.1.5 and added to tubes containing GVB^++ buffer, with or without cefepime, and varying concentrations of magainin 2 peptide (indicated on the X axis). […] After 180 minutes at 37° C., bacterial survival was determined by measuring the number of colony forming units (cfu) in each tube. Bacterial counts were determined in triplicate. For each magainin concentration: Log Kill=log10 cfu no magainin-log10 cfu containing magainin.
The total reaction mixture was 0.25 ml.

[5] = test system: non K1 E. coli strain A645AP; assay: In vivo protection of neutropenic mice challenged with E. coli A645AP; details: neutropenic mice challenged with E. coli A645AP (5.0×10^4 organisms)
Procedure: as §3
C-13 peptide analog G was also examined in neutropenic mice challenged with the non K1 E. coli strain A645AP (5.0×10^4 organisms). When mice were examined for survival after bacterial challenge the following results were obtained: in group 1, where only PBS was administered 3 out of 20 mice survived; in group 2, where only G was administered, 0 out of 15 survived; in group 3 where cefepime was administered 3 out of 20 survived; and in group 4, where both G and cefepime were administered 8 out of 15 survived.

A645AP (pBR322) = assay: Determination of the minimum inhibitory concentration (MIC), A645AP (pBR322); type: cell-based; details: Escherichia coli; antibiotic resistant strain A645AP (pBR322)
Procedure: as §1, §2

[6] = neutropenic mice, 2×10^4 E. coli H16 i.p., peptide 15 mg/kg, cefepime 0.1 mg/kg i.m. at one and 3.5 hours, ten days

`CO/N=C(\C(=O)N[C@@H]1C(=O)N2C(C(=O)[O-])=C(C[N+]3(C)CCCC3)CS[C@H]12)c1csc(N)n1` [cefepime] was tested, and the “synergy of antibiotic with magainin 2” value (E. coli ATCC 25922 [1]) was “synergistic”, the “mice survived (out of total)” value (E. coli H16 [2]) was 1 out of 20 and the MIC (M009) was 64 ug/MI. For the same compound, the “protection from systemic E. coli H16 infection” value (E. coli H16 [3]; Fisher Exact test) was “failed to provide a significant level of protection”, the “% Survival” value (E. coli H16 [3]; [6]) was 12% and the Number--Survived/Total (E. coli H16 [3]; [6]) was 3/25. For the same compound, the log10 kill (E. coli ATCC 25922 [4]) was “Less than 0.3 log10”, the “mice survived (out of total)” value [5] was 3 out of 20 and the MIC (A645AP (pBR322)) was 1 µg/mL (≈ 2.08 µM).
